Laboratory results: the NIST ThermoML archive (doi:10.1007/s10765-006-0063-0)

Legend:
[1] = xn = mol fraction of the nth substance listed; settings: 101 kPa, Liquid, Sing-around technique in a fixed-path interferometer
[2] = 101.33 kPa, Liquid; for speed of sound: Sing-around technique in a fixed-path interferometer

C1COCO1 [1,3-dioxolane] + C1CCCCC1
[1]
Settings | speed of sound [m/s]
283.15 K, x1 = 0.1044 | 1322
283.15 K, x1 = 0.2011 | 1317.6
283.15 K, x1 = 0.3005 | 1315.4
283.15 K, x1 = 0.4009 | 1316
283.15 K, x1 = 0.4998 | 1319.7
283.15 K, x1 = 0.602 | 1327.3
283.15 K, x1 = 0.7002 | 1339
283.15 K, x1 = 0.7989 | 1355.7
283.15 K, x1 = 0.8989 | 1377.7
298.15 K, x1 = 0.0998 | 1245.1
298.15 K, x1 = 0.2014 | 1240
298.15 K, x1 = 0.3019 | 1238.7
298.15 K, x1 = 0.4043 | 1240.5
298.15 K, x1 = 0.4993 | 1245.3
298.15 K, x1 = 0.6028 | 1254.2
298.15 K, x1 = 0.6998 | 1266.9
298.15 K, x1 = 0.8003 | 1284.9
298.15 K, x1 = 0.8992 | 1308.9
313.15 K, x1 = 0.1213 | 1172.5
313.15 K, x1 = 0.2006 | 1167.6
313.15 K, x1 = 0.2996 | 1166.6
313.15 K, x1 = 0.3996 | 1168.8
313.15 K, x1 = 0.5009 | 1174.2
313.15 K, x1 = 0.6 | 1183.2
313.15 K, x1 = 0.6979 | 1196.3
313.15 K, x1 = 0.7987 | 1215.2
313.15 K, x1 = 0.8991 | 1240

C1CCCC1 [cyclopentane] + C1COCCO1
[1]
Settings | speed of sound [m/s]
283.15 K, x2 = 0.0516 | 1280.7
283.15 K, x2 = 0.095 | 1279.4
283.15 K, x2 = 0.1944 | 1280.5
283.15 K, x2 = 0.2987 | 1286
283.15 K, x2 = 0.3973 | 1294.2
283.15 K, x2 = 0.499 | 1305.8
283.15 K, x2 = 0.6003 | 1320.5
283.15 K, x2 = 0.7063 | 1339.6
283.15 K, x2 = 0.8072 | 1361
283.15 K, x2 = 0.9076 | 1385.1
283.15 K, x2 = 0.9528 | 1397
298.15 K, x2 = 0.0488 | 1204.5
298.15 K, x2 = 0.0945 | 1203.8
298.15 K, x2 = 0.1818 | 1205.5
298.15 K, x2 = 0.2983 | 1211.9
298.15 K, x2 = 0.3959 | 1221.4
298.15 K, x2 = 0.4962 | 1234.1
298.15 K, x2 = 0.6067 | 1251.5
298.15 K, x2 = 0.7034 | 1269.8
298.15 K, x2 = 0.811 | 1293.3
298.15 K, x2 = 0.9025 | 1316.4
298.15 K, x2 = 0.9506 | 1329.6
313.15 K, x2 = 0.0449 | 1128.5
313.15 K, x2 = 0.094 | 1128.3
313.15 K, x2 = 0.195 | 1131.3
313.15 K, x2 = 0.2962 | 1138.6
313.15 K, x2 = 0.3969 | 1149.5
313.15 K, x2 = 0.4983 | 1163.6
313.15 K, x2 = 0.5994 | 1180.8
313.15 K, x2 = 0.6987 | 1200.2
313.15 K, x2 = 0.8026 | 1223.8
313.15 K, x2 = 0.9066 | 1250.8
313.15 K, x2 = 0.9482 | 1263

C1CCCCC1 [cyclohexane]
[2]
Settings | mass density [kg/m3] | speed of sound [m/s]
283.15 K | 788 | 1327.8
298.15 K | 773.7 | 1254.4
313.15 K | 759.6 | 1181.1

C1CCCC1 [cyclopentane] + C1COCO1
[1]
Settings | speed of sound [m/s]
283.15 K, x2 = 0.101 | 1277.3
283.15 K, x2 = 0.2019 | 1275.8
283.15 K, x2 = 0.3024 | 1278.6
283.15 K, x2 = 0.4023 | 1285
283.15 K, x2 = 0.5028 | 1295.3
283.15 K, x2 = 0.6 | 1307.9
283.15 K, x2 = 0.6995 | 1325.7
283.15 K, x2 = 0.796 | 1347.3
283.15 K, x2 = 0.8999 | 1375.7
298.15 K, x2 = 0.0998 | 1201.4
298.15 K, x2 = 0.1993 | 1200.8
298.15 K, x2 = 0.3005 | 1204.5
298.15 K, x2 = 0.4041 | 1212
298.15 K, x2 = 0.5024 | 1222.7
298.15 K, x2 = 0.6002 | 1236.4
298.15 K, x2 = 0.7004 | 1255.5
298.15 K, x2 = 0.7988 | 1278.8
298.15 K, x2 = 0.8992 | 1307.4
313.15 K, x2 = 0.1028 | 1125.3
313.15 K, x2 = 0.2032 | 1125.9
313.15 K, x2 = 0.3014 | 1130.2
313.15 K, x2 = 0.403 | 1138.5
313.15 K, x2 = 0.5008 | 1150
313.15 K, x2 = 0.6008 | 1165.5
313.15 K, x2 = 0.6991 | 1184.8
313.15 K, x2 = 0.7991 | 1209
313.15 K, x2 = 0.8987 | 1237.8

C1COCO1 [1,3-dioxolane] + c1ccccc1
[1]
Settings | speed of sound [m/s]
283.15 K, x1 = 0.1037 | 1373.9
283.15 K, x1 = 0.2005 | 1377.2
283.15 K, x1 = 0.2977 | 1380.5
283.15 K, x1 = 0.4007 | 1383.5
283.15 K, x1 = 0.4995 | 1386.6
283.15 K, x1 = 0.5967 | 1389.7
283.15 K, x1 = 0.6984 | 1393.7
283.15 K, x1 = 0.7942 | 1397.3
283.15 K, x1 = 0.8973 | 1401.7
298.15 K, x1 = 0.1 | 1303.1
298.15 K, x1 = 0.2022 | 1306.8
298.15 K, x1 = 0.3002 | 1310.1
298.15 K, x1 = 0.4021 | 1313.6
298.15 K, x1 = 0.4957 | 1317
298.15 K, x1 = 0.5968 | 1320.7
298.15 K, x1 = 0.6965 | 1325.1
298.15 K, x1 = 0.7985 | 1329.4
298.15 K, x1 = 0.8973 | 1334.2
313.15 K, x1 = 0.1006 | 1233.5
313.15 K, x1 = 0.2 | 1237.2
313.15 K, x1 = 0.2985 | 1240.9
313.15 K, x1 = 0.4136 | 1245.1
313.15 K, x1 = 0.4928 | 1248.1
313.15 K, x1 = 0.5953 | 1252
313.15 K, x1 = 0.6979 | 1256.3
313.15 K, x1 = 0.7968 | 1261.2
313.15 K, x1 = 0.8979 | 1266.3

C1CCCC1 [cyclopentane]
[2]
Settings | mass density [kg/m3] | speed of sound [m/s]
283.15 K | 754.9 | 1283.5
298.15 K | 739.7 | 1206.6
313.15 K | 724.7 | 1129.9

C1COCO1 [1,3-dioxolane]
[2]
Settings | mass density [kg/m3] | speed of sound [m/s]
283.15 K | 1077.1 | 1406.3
298.15 K | 1058.8 | 1339.9
313.15 K | 1040.2 | 1271.6

C1COCCO1 [1,4-dioxane] + c1ccccc1
[1]
Settings | speed of sound [m/s]
283.15 K, x1 = 0.0521 | 1370.8
283.15 K, x1 = 0.0942 | 1372.6
283.15 K, x1 = 0.1987 | 1376.5
283.15 K, x1 = 0.2956 | 1380.2
283.15 K, x1 = 0.3936 | 1383.8
283.15 K, x1 = 0.4947 | 1387.4
283.15 K, x1 = 0.5964 | 1391.1
283.15 K, x1 = 0.6956 | 1395.1
283.15 K, x1 = 0.7963 | 1399.3
283.15 K, x1 = 0.8949 | 1404.1
283.15 K, x1 = 0.9526 | 1407.1
298.15 K, x1 = 0.0516 | 1300.8
298.15 K, x1 = 0.0888 | 1302.4
298.15 K, x1 = 0.1966 | 1307.3
298.15 K, x1 = 0.316 | 1312.2
298.15 K, x1 = 0.4145 | 1316.3
298.15 K, x1 = 0.5004 | 1320
298.15 K, x1 = 0.5975 | 1324.1
298.15 K, x1 = 0.6932 | 1328.4
298.15 K, x1 = 0.7962 | 1333.1
298.15 K, x1 = 0.8938 | 1338
298.15 K, x1 = 0.9535 | 1341.1
313.15 K, x1 = 0.0568 | 1232.1
313.15 K, x1 = 0.0913 | 1233.6
313.15 K, x1 = 0.2021 | 1239.2
313.15 K, x1 = 0.2963 | 1243.7
313.15 K, x1 = 0.3981 | 1248.6
313.15 K, x1 = 0.4975 | 1253.1
313.15 K, x1 = 0.5981 | 1257.9
313.15 K, x1 = 0.6972 | 1262.7
313.15 K, x1 = 0.7941 | 1267.5
313.15 K, x1 = 0.9034 | 1273.3
313.15 K, x1 = 0.9424 | 1275.5

C1COCCO1 [1,4-dioxane]
[2]
Settings | mass density [kg/m3] | speed of sound [m/s]
283.15 K | 1045.2 | 1409.6
298.15 K | 1027.9 | 1343.6
313.15 K | 1011 | 1278.8

C1COCCO1 [1,4-dioxane] + C1CCCCC1
[1]
Settings | speed of sound [m/s]
283.15 K, x1 = 0.0502 | 1323.1
283.15 K, x1 = 0.0999 | 1319.7
283.15 K, x1 = 0.1953 | 1315.8
283.15 K, x1 = 0.2899 | 1315.6
283.15 K, x1 = 0.3996 | 1318.4
283.15 K, x1 = 0.5017 | 1324.5
283.15 K, x1 = 0.6007 | 1333.5
283.15 K, x1 = 0.699 | 1346.1
283.15 K, x1 = 0.7956 | 1362.2
283.15 K, x1 = 0.8994 | 1383.9
283.15 K, x1 = 0.9446 | 1394.9
298.15 K, x1 = 0.0535 | 1250
298.15 K, x1 = 0.1053 | 1246.9
298.15 K, x1 = 0.1998 | 1244.4
298.15 K, x1 = 0.3003 | 1245
298.15 K, x1 = 0.4026 | 1248.6
298.15 K, x1 = 0.5006 | 1255.2
298.15 K, x1 = 0.5971 | 1264.5
298.15 K, x1 = 0.7028 | 1278.6
298.15 K, x1 = 0.8089 | 1296.9
298.15 K, x1 = 0.9038 | 1318.4
298.15 K, x1 = 0.9485 | 1330.2
313.15 K, x1 = 0.0497 | 1177.3
313.15 K, x1 = 0.102 | 1174.3
313.15 K, x1 = 0.1944 | 1172.4
313.15 K, x1 = 0.2926 | 1173.7
313.15 K, x1 = 0.3973 | 1178.3
313.15 K, x1 = 0.4969 | 1185.8
313.15 K, x1 = 0.5992 | 1196.7
313.15 K, x1 = 0.6988 | 1211
313.15 K, x1 = 0.7966 | 1229
313.15 K, x1 = 0.8972 | 1251.3
313.15 K, x1 = 0.9505 | 1264.9

c1ccccc1 [benzene]
[2]
Settings | mass density [kg/m3] | speed of sound [m/s]
283.15 K | 889.9 | 1368.7
298.15 K | 873.5 | 1298.3
313.15 K | 857.5 | 1229.5
